In US20210002689A1, “METHOD FOR DETECTING DIFFERENT PROPERTIES IN A MICROORGANISM POPULATION BY OPTICALLY INDUCED DIELECTROPHORETIC FORCE” (Chang Gung University, priority 2019, published 2021):
In brackets after ≈: the same amount, converted by molar mass.

Legend:
[1] = test system: Staphylococcus aureus strains; assay: Vancomycin Etest; type: cell-based; details: 125 clinical Staphylococcus aureus strains selected for PAP-AUC (35 hVISA, 90 VSSA); read-out: minimal inhibition concentration
Description: Firstly, the microorganism sample solution 10 is cultured on a blood agar plate. Next, the microorganism sample solution 10 is cultured in 5% carbon dioxide concentration and 37° C. for 16-18 hours. After being cultured, a single strain group is taken from the blood agar plate and is subjected to a matrix-assisted laser desorption ionization time-of-flight (MALDI-TOF) for strains identification. With respect to selecting strains to be identified as Staphylococcus aureus strains, Vancomycin Etest is used in which 125 strains having a minimal inhibition concentration of 2-4 μg/mL are selected for PAP-AUC.

E. coli ATCC® 25922 [2] = details: cited from earlier work
E. coli ATCC® 25922 [3] = assay: ODEP force analysis after subjecting to ampicillin; type: cell-based, Escherichia coli; details: ampicillin of gradually increased concentration (up to 16 μg/ml), cultured 1.5 hours, FIG. 5
Description: (§1) Referring to FIG. 1 again, after E. coli ATCC® 35218 and E. coli ATCC® 25922 have been activated, they are made into solutions having bacteria for subsequent antibiotics processing. Steps of making solutions having bacteria are described in detail below: selecting a plurality of activated large E. coli strains; dissolving it in normal saline which is a solution of sodium chloride at 0.9% concentration; adjusting its turbidity to 0.5 McFarland to make the microorganism sample solution 10; in each solution having bacteria, adding different amounts of ampicillin antibiotics powder to make a solution having antibiotics concentration of 0 μg/ml, 4 μg/ml, 8 μg/ml or 16 μg/ml, and finally, culturing each solution of different antibiotics concentration in 5% carbon dioxide concentration and 37° C. for 1.5 hours to make the microorganism sample solution to be tested 14.
(§2) Referring to FIGS. 1 to 4 again, an injection pump is used to inject the microorganism sample solution to be tested 14 into the ODEP device 20 via the sample injection hole 221. Electrical properties (e.g., conduction or polarizability) differences are generated because E. coli ATCC® 35218 and E. coli ATCC® 25922 in the microorganism sample solution to be tested 14 have been subjected to ampicillin. […]

E. coli ATCC® 35218 [4] = assay: ODEP force analysis after subjecting to ampicillin; type: cell-based, Escherichia coli; details: ampicillin 0, 4, 8 or 16 μg/ml, cultured 1.5 hours, FIG. 5
Description: as §1, §2

E. coli ATCC® 35218 [5] = details: cited from earlier work

Work on `CN[C@H](CC(C)C)C(=O)N[C@H]1C(=O)N[C@@H](CC(N)=O)C(=O)N[C@H]2C(=O)N[C@H]3C(=O)N[C@H](C(=O)N[C@H](C(=O)O)c4cc(O)cc(O)c4-c4cc3ccc4O)[C@H](O)c3ccc(c(Cl)c3)Oc3cc2cc(c3O[C@@H]2O[C@H](CO)[C@@H](O)[C@H](O)[C@H]2O[C@H]2C[C@](C)(N)[C@H](O)[C@H](C)O2)Oc2ccc(cc2Cl)[C@H]1O` [Vancomycin] yielded an MIC [1] of 2 to 4 µg/mL (≈ 1.38 to 2.76 µM).
In the case of `CC1(C)S[C@@H]2[C@H](NC(=O)[C@H](N)c3ccccc3)C(=O)N2[C@H]1C(=O)O` [ampicillin], the minimal inhibition concentration (E. coli ATCC® 25922 [2]) is given as 2 to 8 µg/mL, the “force generated by light (ODEP force)” value (E. coli ATCC® 25922 [3]) is given as 100 μm/sec and the “force generated by light (ODEP force)” value (E. coli ATCC® 35218 [4]) is given as 220-260 μm/sec. For the same compound, the minimal inhibition concentration (E. coli ATCC® 35218 [5]) was “greater than 32 μg/ml”.
